Test results from patent US20230248036A1, “FLAVOUR ADDITIVES” (MARS, INCORPORATED, priority 2012, published 2023).

Experiments:
feline umami receptor = assay: Ligand binding of the feline umami receptor; settings: natural ligands of the human T1R1/T1R3 receptor
Excerpt: As mentioned above, in addition to in silico modelling of the feline umami receptor, sequence alignments of the human, cat and dog receptors have been performed. […] Therefore, due to these significant differences, it would not be expected by the skilled person that compounds that are known to bind to the human receptor would affect the umami receptor of other animals as described herein.

[1] = tested on: T1R1/T1R3 receptor (umami receptor); assay: In vitro screening for binding and activation of the umami receptor; assay type: biochemical; settings: in vitro assays using a non-human umami receptor (with in silico modelling); screening in the presence of 0.2 mM IMP
Procedure: In vitro screening was carried out in order to establish which first amino acids bind and activate the umami receptor.
In vitro screening was carried out in order to establish which second amino acids bind and activate the umami receptor.

Binding to the feline umami receptor (feline umami receptor)	Ability to bind to and activate the umami receptor [1]	Compound
does not bind		N[C@@H](CCC(=O)O)C(=O)O [glutamate]
	able to bind to and activate	NCC(=O)O [glycine]
	able to bind to and activate	N[C@@H](Cc1c[nH]cn1)C(=O)O [histidine]
	do not activate	C[C@@H](O)[C@H](N)C(=O)O [threonine]
